{"source": "paper PMC3026871", "about": "(Cancer chemotherapy and pharmacology, 2010)", "origin": "cited, not measured here", "biological_target": "Aurora A kinase in skin basal epithelial cells (Homo sapiens, UniProt O14965)", "sequence (O14965 whole entry)": "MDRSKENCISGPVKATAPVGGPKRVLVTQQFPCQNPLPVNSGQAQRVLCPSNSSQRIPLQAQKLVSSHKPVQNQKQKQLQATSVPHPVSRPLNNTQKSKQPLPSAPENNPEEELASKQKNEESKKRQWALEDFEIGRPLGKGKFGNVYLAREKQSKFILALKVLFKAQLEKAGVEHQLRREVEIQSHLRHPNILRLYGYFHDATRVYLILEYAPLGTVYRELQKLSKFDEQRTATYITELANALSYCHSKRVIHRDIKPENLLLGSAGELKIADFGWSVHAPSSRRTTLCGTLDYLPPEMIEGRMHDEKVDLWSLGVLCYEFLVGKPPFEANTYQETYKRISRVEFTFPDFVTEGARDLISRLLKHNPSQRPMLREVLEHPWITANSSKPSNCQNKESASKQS", "conditions": "subsequent studies, similar times, identical assays; cited from earlier work", "data": [{"molecule": "COc1cc(Nc2ncc3c(n2)-c2ccc(Cl)cc2C(c2c(F)cccc2OC)=NC3)ccc1C(=O)O", "note": "[MLN8237]", "values": [{"measurement": "pharmacodynamic activity in skin biopsies", "value": "dose-dependent pharmacodynamic activity in skin biopsies"}]}]}
